Test results: paper PMC12131194, “Rational design, synthesis, and evaluation of novel polypharmacological compounds targeting NaV1.5, KV1.5, and K2P channels for atrial fibrillation” (The Journal of Biological Chemistry, 2025)

Legend:
[1] = molecular target: T1, human NaV1.5 (Homo sapiens, UniProt Q14524); test: Whole-cell patch-clamp in transfected HEK-293 cells, NaV1.5; type: cell-based; conditions: 10 μM and 100 μM, −10 mV
T1 construct: host or cells: HEK-293 (transient transfection)
Description: The human embryonic kidney 293 (HEK-293) cell line was obtained from the American Type Culture Collection. HEK-293 cells were cultured in Dulbecco’s modified Eagle’s medium (DMEM-F12, Invitrogen Life Technologies) supplemented with 5% (v/v) fetal bovine serum (FBS) (Thermo Fisher Scientific) and 1% antibiotics (penicillin 100 U/ml y streptomycin 100 μg/ml) (Gibco, Thermo Fisher). The cells were maintained at 37 °C and 5% CO2 atmosphere.
For the electrophysiological experiments, HEK-293 cells were transiently transfected with cDNA encoding human NaV1.5 (plasmid 145,374, Addgene), KV1.5 (NM_002234), and TASK-1 (NM_002246). […] The cells were incubated for 4 h in transfection medium OptiMEM (Invitrogen). […]
For Nav1.5, the effect of 6f at both concentrations was tested using a repetitive single test voltage pulse at −10 mV (during 20 ms) from a holding potential of −80 mV, with intervals of 5s between pulses. For Kv1.5 and TASK-1, ramp voltage protocols were applied with pulse intervals of 20 s, and the currents were analyzed at +40 mV.
After recording currents with stable amplitudes, the cells were treated with 6f and applied from the bath solution. Currents were continuously recorded during repetitive pulses until a stable effect was achieved. […] The inhibition percentage was calculated as follows: Inℎibition (%) = 100 ∗ (Icontrol − Idrug)/Icontrol.

[2] = system: human atrial cardiomyocytes from patients with AF; test: Patch-clamp action potential recordings, atrial cardiomyocytes of atrial fibrillation patients; type: cell-based
Description: A total of 10 patients with sinus rhythm (SR) (N = 5) or atrial fibrillation (AF) (N = 5) undergoing open heart surgery for coronary artery bypass grafting, heart valve replacement or heart transplantation were included in the study (Table S7). A written informed consent was given by all patients. The study protocol involving human tissue samples was approved by the responsible Ethics Committee of the Medical Faculty of Heidelberg University (Germany; S-017/2013) and was conducted in accordance with the 1964 Declaration of Helsinki.
The right atrial human tissue samples were transported in chilled Ca^2+-free solution (100 mM NaCl, 10 mM KCl, 1.2 mM KH2PO4, 5 mM MgSO4, 50 mM taurine, 5 mM 3-(N-morpholino)propanesulfonic acid (MOPS), 30 mM 2,3-butanedione monoxime and 20 mM glucose, pH 7.0 with NaOH). After dissection into small chunks, the samples were rinsed for 5 minutes with calcium-free Tyrode's solution, which was oxygenated with 100% O2 at 37 °C. The samples were then digested with collagenase type I (288 U/ml; Worthington) and protease type XXIV (5 mg/ml; Sigma-Aldrich, Steinheim, Germany) for 10 to 15 min, followed by an increase in calcium concentration to 0.2 mM. After an additional 35 min of agitation in protease-free solution, rod-shaped single cardiomyocytes were harvested. The suspension was centrifuged, and the cells were resuspended in storage (“Kraftbrühe”, KB) medium (20 mM KCl, 10 mM KH2PO4, 25 mM glucose, 40 mM D-Mannitol, 70 mM K glutamate, 10 mM β-hydroxybutyrate, 20 mM taurine, 10 mM ethylene glycol tetraacetic acid (EGTA), and 1% albumin) until usage in patch-clamp experiments.
Patch-clamp glass pipettes were fabricated from borosilicate glass (1B120F-4; World Precision Instruments). After back-filling with patch-clamp internal solution (134 mM K gluconate, 6 mM NaCl, 1.2 mM MgCl2, 1 mM Mg-ATP, 10 mM HEPES, pH 7.2 with KOH), tip resistances ranged from 5 to 10 MΩ. All experiments were carried out at room temperature under constant superfusion with patch-clamp extracellular solution containing 137 mM NaCl, 5.4 mM KCl, 1 mM MgCl2, 2 mM CaCl2, 10 mM HEPES, 10 mM glucose (pH 7.3 with NaOH). AP-recordings were performed in current clamp mode: The holding current was adjusted such that the cell’s resting membrane potential was approximately −70 mV at baseline. APs were induced by short (5 ms) depolarizing current pulses at a rate of 0.5 Hz. Data was not adjusted for potential differences caused by liquid junctions, and no leak subtraction was performed.
Data acquisition and analysis were performed using the pCLAMP10 software (Axon Instruments) and statistical analysis was done using Prism 8 (GraphPad Software). Data is presented as the mean ± standard error of the mean (SEM). Statistical comparisons were made using Dunnett’s post hoc test. A p value of < 0.05 was considered significant.

T1 sequence (Q14524 whole entry): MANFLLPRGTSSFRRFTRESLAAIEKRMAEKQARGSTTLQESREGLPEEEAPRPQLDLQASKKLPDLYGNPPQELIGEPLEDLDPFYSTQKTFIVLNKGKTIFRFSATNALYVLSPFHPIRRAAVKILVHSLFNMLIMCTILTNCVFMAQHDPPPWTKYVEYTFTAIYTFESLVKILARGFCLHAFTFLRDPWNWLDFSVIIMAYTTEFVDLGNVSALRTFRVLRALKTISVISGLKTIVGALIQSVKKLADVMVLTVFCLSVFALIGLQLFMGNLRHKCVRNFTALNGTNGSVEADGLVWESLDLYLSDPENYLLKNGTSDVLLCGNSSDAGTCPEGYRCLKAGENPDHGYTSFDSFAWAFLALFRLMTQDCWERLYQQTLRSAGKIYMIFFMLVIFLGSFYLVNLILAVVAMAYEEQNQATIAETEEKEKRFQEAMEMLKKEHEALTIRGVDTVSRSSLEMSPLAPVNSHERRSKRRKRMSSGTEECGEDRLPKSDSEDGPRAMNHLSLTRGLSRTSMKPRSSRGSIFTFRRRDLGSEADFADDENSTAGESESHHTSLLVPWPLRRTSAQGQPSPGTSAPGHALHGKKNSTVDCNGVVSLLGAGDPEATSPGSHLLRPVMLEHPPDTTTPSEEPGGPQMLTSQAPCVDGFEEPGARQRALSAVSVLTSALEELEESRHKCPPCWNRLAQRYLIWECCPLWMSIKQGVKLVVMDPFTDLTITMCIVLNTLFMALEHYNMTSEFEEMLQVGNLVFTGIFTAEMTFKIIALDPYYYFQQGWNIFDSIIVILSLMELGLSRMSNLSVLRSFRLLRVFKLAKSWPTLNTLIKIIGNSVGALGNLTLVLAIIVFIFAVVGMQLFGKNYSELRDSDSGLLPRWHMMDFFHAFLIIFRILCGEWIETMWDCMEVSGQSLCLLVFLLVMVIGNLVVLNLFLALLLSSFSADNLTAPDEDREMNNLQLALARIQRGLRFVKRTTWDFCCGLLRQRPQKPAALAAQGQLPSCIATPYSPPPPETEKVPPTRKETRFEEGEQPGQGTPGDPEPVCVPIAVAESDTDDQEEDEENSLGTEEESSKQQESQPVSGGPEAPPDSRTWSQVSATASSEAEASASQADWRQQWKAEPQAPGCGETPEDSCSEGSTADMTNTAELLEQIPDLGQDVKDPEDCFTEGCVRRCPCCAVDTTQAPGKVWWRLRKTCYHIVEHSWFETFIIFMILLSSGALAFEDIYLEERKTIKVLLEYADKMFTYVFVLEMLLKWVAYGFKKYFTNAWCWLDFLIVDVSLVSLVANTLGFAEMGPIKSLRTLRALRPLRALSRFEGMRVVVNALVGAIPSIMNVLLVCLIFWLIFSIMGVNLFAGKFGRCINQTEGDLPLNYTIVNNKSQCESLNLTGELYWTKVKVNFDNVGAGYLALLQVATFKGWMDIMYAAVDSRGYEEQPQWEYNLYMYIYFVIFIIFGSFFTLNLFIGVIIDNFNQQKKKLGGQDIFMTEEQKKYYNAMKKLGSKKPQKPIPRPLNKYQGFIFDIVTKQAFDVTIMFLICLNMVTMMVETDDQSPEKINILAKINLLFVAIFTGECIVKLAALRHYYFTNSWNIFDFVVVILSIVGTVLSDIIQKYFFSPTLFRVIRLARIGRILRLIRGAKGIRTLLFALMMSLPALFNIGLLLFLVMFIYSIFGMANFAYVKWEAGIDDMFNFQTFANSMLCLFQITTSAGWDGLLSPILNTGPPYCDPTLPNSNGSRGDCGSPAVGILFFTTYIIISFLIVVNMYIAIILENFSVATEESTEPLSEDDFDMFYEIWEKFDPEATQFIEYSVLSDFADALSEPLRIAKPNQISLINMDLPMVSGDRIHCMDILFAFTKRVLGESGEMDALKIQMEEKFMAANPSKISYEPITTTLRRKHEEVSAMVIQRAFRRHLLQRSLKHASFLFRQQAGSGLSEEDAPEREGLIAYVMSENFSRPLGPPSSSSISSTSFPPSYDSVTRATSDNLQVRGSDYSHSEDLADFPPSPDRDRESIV

CCCCN(CCCC)CC(=O)Nc1ccc(OC)cc1OC [Compound 6f, 2-(dibutylamine)-N-(2,4-dimethoxiphenyl)acetamide]
Blockade of NaV1.5 in HEK cells [1]: significant blockade by 6f only at 100 μM
APD50 vs baseline ([2]; AF, 6.25 μM): increase in ADP50 with 6.25 μM 6f was significant
APD50 vs baseline ([2]; AF, 1, 6.25 and 12.5 μM): concentration-dependent prolongation trend
APD90 vs baseline ([2]; AF, 1, 6.25 and 12.5 μM): concentration-dependent prolongation trend
Action potential amplitude (APA) vs baseline ([2]; AF, 1, 6.25 and 12.5 μM): no changes
Maximal upstroke velocity vs baseline ([2]; AF, 1, 6.25 and 12.5 μM): no changes
Resting membrane potential (RMP) ([2]; AF, 1, 6.25 and 12.5 μM): significant concentration-dependent shift in the RMP to more negative values
